The record followed here is ChEMBL document CHEMBL4000172, “Identification of a novel 5-amino-3-(5-cyclopropylisoxazol-3-yl)-1-isopropyl-1H-pyrazole-4-carboxamide as a specific RET kinase inhibitor” (Eur J Med Chem, 2017).

SMILES strings stand for the structures.

In data set [1] the target is T1, Proto-oncogene tyrosine-protein kinase receptor Ret (Homo sapiens, UniProt P07949). In words: Inhibition of human RET using KKKSPGEYVNIEFG as peptide substrate in presence of [gamma33P]ATP by radiometric assay.
T1 sequence (P07949 whole entry): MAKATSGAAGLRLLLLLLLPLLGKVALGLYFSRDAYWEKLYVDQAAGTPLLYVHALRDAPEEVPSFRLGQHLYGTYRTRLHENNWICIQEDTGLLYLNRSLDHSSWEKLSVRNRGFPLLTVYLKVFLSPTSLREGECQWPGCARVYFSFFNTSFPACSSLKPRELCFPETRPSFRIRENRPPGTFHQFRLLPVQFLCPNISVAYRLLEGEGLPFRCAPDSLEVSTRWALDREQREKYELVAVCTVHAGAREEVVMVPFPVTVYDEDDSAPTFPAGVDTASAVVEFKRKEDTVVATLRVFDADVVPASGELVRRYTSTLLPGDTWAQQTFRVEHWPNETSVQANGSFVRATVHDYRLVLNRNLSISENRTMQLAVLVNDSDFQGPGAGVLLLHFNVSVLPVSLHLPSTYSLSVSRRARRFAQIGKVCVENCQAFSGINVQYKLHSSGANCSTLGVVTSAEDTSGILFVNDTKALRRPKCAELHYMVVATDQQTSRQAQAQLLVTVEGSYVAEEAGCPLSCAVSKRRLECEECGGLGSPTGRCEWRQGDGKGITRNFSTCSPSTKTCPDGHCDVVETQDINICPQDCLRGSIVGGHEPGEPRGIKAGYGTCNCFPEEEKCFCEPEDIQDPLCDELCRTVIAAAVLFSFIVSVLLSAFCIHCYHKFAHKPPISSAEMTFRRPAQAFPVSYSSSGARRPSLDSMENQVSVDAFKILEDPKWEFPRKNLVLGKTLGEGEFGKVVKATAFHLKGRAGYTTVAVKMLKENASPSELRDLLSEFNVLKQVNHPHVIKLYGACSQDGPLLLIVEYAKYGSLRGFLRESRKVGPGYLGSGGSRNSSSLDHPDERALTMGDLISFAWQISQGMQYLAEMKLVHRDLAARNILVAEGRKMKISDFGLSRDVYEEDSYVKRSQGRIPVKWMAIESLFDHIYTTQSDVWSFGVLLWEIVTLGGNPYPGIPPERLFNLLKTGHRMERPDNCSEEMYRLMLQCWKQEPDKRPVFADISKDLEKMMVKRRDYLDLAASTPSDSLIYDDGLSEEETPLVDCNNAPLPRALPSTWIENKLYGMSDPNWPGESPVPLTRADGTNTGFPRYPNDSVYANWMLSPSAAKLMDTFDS
The test system of data set [2] is Proto-oncogene tyrosine-protein kinase receptor Ret (Homo sapiens), P07949 [C634W].
Proto-oncogene tyrosine-protein kinase receptor Ret (Homo sapiens), P07949 [C634W], sequence (P07949 whole entry C634W): as the sequence (P07949 whole entry) above, with C634W counted along it
Description: Inhibition of RET C634W mutant in human TT cells assessed as reduction in cell viability by CellTiter-Glo luminescence assay
Data set [3] is described as follows: Cytotoxicity against mouse BA/F3 cells assessed as reduction in cell viability by CellTiter-Glo luminescence assay. It is filed as cell-based, BaF3.
Data set [4] in a line: Cytotoxicity against human Nthy-ori 3-1 cells assessed as reduction in cell viability by CellTiter-Glo luminescence assay. It counts as cell-based.
The target in data set [5] is T1, Proto-oncogene tyrosine-protein kinase receptor Ret.
Description: Inhibition of RET (unknown origin) transfected in mouse Ba/F3 cells assessed as reduction in cell viability by CellTiter-Glo luminescence assay
Data set [6] can be described thus: Stability in mouse liver microsomes assessed as compound remaining at 1 uM after 15 mins. It is filed as ADME, microsome. To be noted: read-out: Stability.
Data set [7] deals with Proto-oncogene tyrosine-protein kinase receptor Ret (Homo sapiens), P07949 [V804M].
Proto-oncogene tyrosine-protein kinase receptor Ret (Homo sapiens), P07949 [V804M], sequence (P07949 whole entry V804M): as the sequence (P07949 whole entry) above, with V804M counted along it
Description: Inhibition of RET V804M mutant (unknown origin) transfected in mouse Ba/F3 cells assessed as reduction in cell viability by CellTiter-Glo luminescence assay
Data set [8] has as its target Proto-oncogene tyrosine-protein kinase receptor Ret (Homo sapiens, UniProt P07949, V804M). In words: Inhibition of human RET V804M mutant using peptide substrate KKKVSRSGLYRSPS MPENLNRPR in presence of [gamma33P]ATP by radiometric assay.
The nature of data set [9]: Stability in rat liver microsomes assessed as compound remaining at 1 uM after 30 mins. It is filed as ADME, microsome. Particulars: read-out: Stability.
Data set [10] in a line: Stability in human liver microsomes assessed as compound remaining at 1 uM after 30 mins. It is filed as ADME, microsome. To be noted: read-out: Stability.
Data set [11] in a line: Stability in human liver microsomes assessed as compound remaining at 1 uM after 15 mins. It counts as ADME, microsome. Particulars: read-out: Stability.
The nature of data set [12]: Induction of apoptosis in human Nthy-ori 3-1 cells assessed as increase in cleaved PARP level at 5 to 20 uM after 48 hrs by Western blot method. It is filed as cell-based. Particulars: nthy-ori 3-1, 48 h.
The nature of data set [13]: Stability in rat liver microsomes assessed as compound remaining at 1 uM after 15 mins. It counts as ADME, microsome. Particulars: read-out: Stability.
Data set [14] can be described thus: Induction of apoptosis in human Nthy-ori 3-1 cells assessed as increase in cleaved PARP level at 5 uM after 48 hrs by Western blot method. It is filed as cell-based. Particulars: nthy-ori 3-1, 48 h.

Proto-oncogene tyrosine-protein kinase receptor Ret (Homo sapiens, UniProt P07949, V804M), sequence (P07949 29-1114 V804M limits assumed): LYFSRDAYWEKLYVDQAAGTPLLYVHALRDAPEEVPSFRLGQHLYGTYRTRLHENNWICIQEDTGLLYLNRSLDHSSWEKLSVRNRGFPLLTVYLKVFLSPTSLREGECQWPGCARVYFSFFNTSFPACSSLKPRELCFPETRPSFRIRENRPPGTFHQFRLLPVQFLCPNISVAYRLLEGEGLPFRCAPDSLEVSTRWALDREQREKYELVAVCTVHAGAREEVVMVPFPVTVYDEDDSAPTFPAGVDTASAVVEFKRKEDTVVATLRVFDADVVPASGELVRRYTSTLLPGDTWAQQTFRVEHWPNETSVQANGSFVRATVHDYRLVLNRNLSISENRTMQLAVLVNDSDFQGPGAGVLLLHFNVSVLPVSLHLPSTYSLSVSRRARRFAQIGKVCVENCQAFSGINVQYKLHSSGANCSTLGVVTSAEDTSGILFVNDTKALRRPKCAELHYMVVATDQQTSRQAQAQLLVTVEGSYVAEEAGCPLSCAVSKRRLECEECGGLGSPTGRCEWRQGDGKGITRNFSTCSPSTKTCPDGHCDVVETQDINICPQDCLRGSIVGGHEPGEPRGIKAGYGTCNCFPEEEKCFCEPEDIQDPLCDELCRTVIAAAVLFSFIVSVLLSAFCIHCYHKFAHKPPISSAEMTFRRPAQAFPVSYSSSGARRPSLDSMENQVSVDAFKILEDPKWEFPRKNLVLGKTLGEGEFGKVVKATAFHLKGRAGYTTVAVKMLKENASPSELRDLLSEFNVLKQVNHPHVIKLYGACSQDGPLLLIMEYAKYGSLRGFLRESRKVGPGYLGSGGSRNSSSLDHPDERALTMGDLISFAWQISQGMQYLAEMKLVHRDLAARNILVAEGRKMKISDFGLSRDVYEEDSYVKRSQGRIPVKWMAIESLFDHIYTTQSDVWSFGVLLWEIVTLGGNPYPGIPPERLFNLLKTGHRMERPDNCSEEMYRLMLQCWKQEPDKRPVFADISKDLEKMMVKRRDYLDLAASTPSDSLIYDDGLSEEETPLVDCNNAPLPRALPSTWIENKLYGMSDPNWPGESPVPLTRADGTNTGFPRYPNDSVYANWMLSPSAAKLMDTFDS

For the molecule `CC(C)n1nc(-c2cc(-c3ccsc3)on2)c(C(N)=O)c1N`, the IC50 was found to be 0.162 µM in [1] and 2.9 µM in data set [8]. The GI50 in [2], in [3], in data set [4], in [5] and in data set [7] was above 10 µM each time. Moreover, in data set [6], the remaining at 0.25 h, 1 µM is 11.8%.
`CC(C)n1nc(-c2cc(-c3cccnc3)on2)c(C(N)=O)c1N`: the IC50 in data set [1] was 3.39 µM. In addition, the remaining at 0.25 h, 1 µM in [6] worked out at 86.7%.
For the molecule `CC(C)n1nc(-c2cc(C3CC3)on2)c(C(N)=O)c1N`, the IC50 amounted to 0.044 µM in data set [1] and 0.252 µM in [8]. For the same molecule, the GI50 in data set [2] was 1.66 µM; in [3] it was above 10 µM; in data set [4] it was above 10 µM; in data set [5], 0.87 µM; in data set [7], 6.98 µM. Besides, the values for the remaining at 0.5 h, 1 µM in data set [9] and in data set [10] were 69% and 45.1%, respectively. Moreover, the figures for the remaining at 0.25 h, 1 µM in [11], in data set [6] and in data set [13] were 73%, 62.5% and 70%, respectively. Besides, the Activity entry in [12] is reported as “Non-Toxic”.
On to `Nc1ncnc2[nH]nc(-c3cc(C4CC4)on3)c12`, for which the remaining at 0.25 h, 1 µM in [6] was found to be 1.4%.
For `CCc1cc(-c2nn(C(C)C)c(N)c2C(N)=O)no1`, the IC50 in data set [1] is 0.631 µM. The remaining at 0.25 h, 1 µM in data set [6] came out at 15.1%.
The matching figures for `Cc1ccc(-c2cc(-c3nn(C(C)C)c(N)c3C(N)=O)no2)cc1`: 1.66 µM and 61.8%.
For the molecule `CC(C)n1nc(-c2cc(-c3cccs3)on2)c(C(N)=O)c1N`, the values for the IC50 in data set [1] and in [8] were 0.078 µM and 1.22 µM, respectively. The GI50 in data set [2], in data set [3], in data set [4], in data set [5] and in data set [7] was above 10 µM each time. Also, the remaining at 0.25 h, 1 µM in data set [6] worked out at 32.1%.
Turning to `CC(C)n1nc(-c2cc(-c3ccccc3)on2)c(C(N)=O)c1N`, the IC50 in [1] turned out to be 0.236 µM. In addition, in [6], the remaining at 0.25 h, 1 µM came to 60.8%.
Consider `CC(C)n1nc(-c2ccon2)c2c(N)ncnc21`, for which the remaining at 0.25 h, 1 µM in [6] is 2.6%.
Regarding `CC(C)n1nc(-c2cc(-c3ccc(F)cc3)on2)c(C(N)=O)c1N`, in [1], the half-inhibitory concentration (IC50) was 0.416 µM. In data set [6], the remaining at 0.25 h, 1 µM came to 85.2%.
For `CC(C)n1nc(-c2cc(Cc3ccccc3)on2)c(C(N)=O)c1N` the same measures were 1.64 µM and 54.6%.
`CC(C)c1cc(-c2nn(C(C)C)c3ncnc(N)c23)no1`: the remaining at 0.5 h, 1 µM in data set [9] came out at 4.1%; in [10], 4.6%. Moreover, the remaining at 0.25 h, 1 µM stood at 29% in data set [11], 5.1% in [6] and 3.8% in data set [13].
`CC(C)n1nc(-c2coc(C3CC3)n2)c2c(N)ncnc21`: the IC50 in data set [1] stood at 0.139 µM. The remaining at 0.25 h, 1 µM in data set [6] was found to be 2.8%.
The matching figures for `CC(C)n1nc(-c2cc(C3CCCCC3)on2)c(C(N)=O)c1N`: 2.69 µM and 40.6%.
For `CC(C)c1cc(-c2nn(C(C)C)c(N)c2C(N)=O)no1` the same measures were 1.26 µM and 51.6%.
For the molecule `COc1cc2nccc(Oc3ccc(NC(=O)C4(C(=O)Nc5ccc(F)cc5)CC4)cc3)c2cc1OC` [CABOZANTINIB], the GI50 in [2] was 0.26 µM; in data set [3], above 10 µM; in data set [4], 2.92 µM; in data set [5], 0.07 µM; in data set [7] it was 0.74 µM. For the same molecule, the Activity entry in data set [14] is “Toxic”.
As for `CC(C)n1nc(-c2cc(-c3ccccn3)on2)c(C(N)=O)c1N`, the IC50 in [1] came to 4.8 µM. Also, in data set [6], the remaining at 0.25 h, 1 µM is 49%.
For `CC(C)n1nc(-c2cc(C(C)(C)C)on2)c(C(N)=O)c1N` the same measures were 2.22 µM and 78%.
